Data as given in ChEMBL document CHEMBL5149994, “Anticancer potential of indirubins in medicinal chemistry: Biological activity, structural modification, and structure-activity relationship” (Eur J Med Chem, 2021).
Values belong to the compound of their own block, whether it stands above or below them.

Key:
[1] = test system: HCT-116; assay: Antiproliferative activity against human HCT-116 cells assessed as cell growth inhibition; format: functional, cell-based
[2] = test system: MCF7; assay: Antiproliferative activity against human MCF7 cells assessed as cell growth inhibition; format: functional, cell-based
[3] = test system: LXFL 529; assay: Antiproliferative activity against human LXFL 529 cells assessed as cell growth inhibition; format: functional, cell-based
[4] = target: Vascular endothelial growth factor receptor 2 (Homo sapiens, UniProt P35968); assay: Inhibition of VEGFR2 (unknown origin)
[5] = test system: CT26; assay: Antitumor activity against mouse CT26 cells in BALB/c mouse assessed as reduction in tumour volume at 200 mg/kg, ILES daily measured after 15 days relative to control; format: functional; parameters: scale not given: the % may be the effect or the level left; settings: time 15 day
[6] = target: Proto-oncogene tyrosine-protein kinase Src (Homo sapiens, UniProt P12931); assay: Inhibition of c-SRC in human MDA-MB-468 cells in presence of [gamma-32P]ATP and ATP by immunoprecipitation method; format: cell-based
[7] = test system: CT26; assay: Antitumor activity against mouse CT26 cells in BALB/c mouse assessed as reduction in tumour weight at 200 mg/kg, ILES daily measured after 15 days relative to control; format: functional; parameters: scale not given: the % may be the effect or the level left; settings: time 15 day
[8] = target: Glycogen synthase kinase-3 (Homo sapiens, UniProt P49840+P49841); assay: Inhibition of GSK3 (unknown origin); format: protein assay
[9] = test system: OCI-AML2; assay: Antiproliferative activity against human OCI-AML2 cells assessed as cell growth inhibition measured after 72 hrs by MTT assay; format: functional, cell-based; settings: OCI-AML2, 72 h
[10] = test system: K562; assay: Antiproliferative activity against human K562 cells assessed as cell growth inhibition measured after 72 hrs by MTT assay; format: functional, cell-based; settings: K562, 72 h
[11] = test system: K562; assay: Antiproliferative activity against imatinib treated human K562 cells assessed as cell growth inhibition measured after 72 hrs by MTT assay; format: functional, cell-based; settings: K562, 72 h
[12] = test system: OCI-AML2; assay: Antiproliferative activity against imatinib and Ara-C resistant human OCI-AML2 cells assessed as cell growth inhibition measured after 72 hrs by MTT assay; format: functional, cell-based; settings: OCI-AML2, 72 h
[13] = target: T1, Receptor-type tyrosine-protein kinase FLT3 (Homo sapiens, UniProt P36888); assay: Inhibition of FLT3 (unknown origin)
T1 sequence (P36888 whole entry): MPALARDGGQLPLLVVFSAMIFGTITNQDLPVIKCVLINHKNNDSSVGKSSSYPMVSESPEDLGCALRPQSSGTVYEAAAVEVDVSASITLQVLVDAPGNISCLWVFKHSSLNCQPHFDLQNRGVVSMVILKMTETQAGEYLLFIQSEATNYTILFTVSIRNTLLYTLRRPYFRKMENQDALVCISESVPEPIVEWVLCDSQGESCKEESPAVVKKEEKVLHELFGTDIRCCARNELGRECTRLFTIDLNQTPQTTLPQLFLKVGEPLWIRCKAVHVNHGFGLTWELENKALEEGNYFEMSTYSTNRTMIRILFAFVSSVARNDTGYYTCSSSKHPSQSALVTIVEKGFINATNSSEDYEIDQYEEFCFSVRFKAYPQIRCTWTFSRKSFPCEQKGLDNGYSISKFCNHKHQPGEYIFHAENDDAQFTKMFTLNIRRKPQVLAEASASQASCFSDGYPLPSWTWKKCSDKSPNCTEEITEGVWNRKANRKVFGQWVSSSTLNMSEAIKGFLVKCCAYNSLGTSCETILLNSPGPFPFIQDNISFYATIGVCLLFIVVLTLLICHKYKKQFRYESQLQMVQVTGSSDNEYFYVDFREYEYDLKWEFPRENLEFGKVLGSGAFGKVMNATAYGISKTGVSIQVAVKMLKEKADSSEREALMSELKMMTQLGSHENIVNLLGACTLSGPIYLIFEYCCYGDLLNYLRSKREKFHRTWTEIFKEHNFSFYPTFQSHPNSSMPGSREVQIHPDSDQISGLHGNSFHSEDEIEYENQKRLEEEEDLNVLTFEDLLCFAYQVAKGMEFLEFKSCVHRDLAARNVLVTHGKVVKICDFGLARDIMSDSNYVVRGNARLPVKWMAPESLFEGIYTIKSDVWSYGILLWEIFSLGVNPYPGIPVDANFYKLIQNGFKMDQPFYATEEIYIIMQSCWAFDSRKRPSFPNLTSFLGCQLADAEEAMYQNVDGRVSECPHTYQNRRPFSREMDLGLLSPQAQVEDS

[14] = test system: MV4-11; assay: Cytotoxicity in human MV4-11 cells assessed as cell growth inhibition incubated for 48 hrs by propidium iodide staining based flow cytometry assay; format: functional
[15] = target: T1, Receptor-type tyrosine-protein kinase FLT3; assay: Inhibition of recombinant FLT3 (unknown origin) by HTRF assay
[16] = target: Cyclin-dependent kinase 4/cyclin D1 (Homo sapiens, UniProt P11802); assay: Inhibition of CDK4/cyclin D1 (unknown origin); format: protein-complex assay
[17] = target: Tyrosine-protein kinase Lck (Homo sapiens, UniProt P06239); assay: Inhibition of LCK (unknown origin) in presence of ATP
[18] = target: T2, CDK2/Cyclin A2 (Homo sapiens, UniProt P24941); assay: Inhibition of GST-fused human CDK2/cyclin A expressed in Escherichia coli using histone H1 as substrate in presence of [33p]-gamma ATP and MgATP
[19] = test system: A549; assay: Antitumor activity against human A549 cells xenografted in CD1 mouse assessed as reduction in tumour weight at 6 mg/kg, sc treated 3 times a week for 25 days in presence of thymoquinone relative to control; format: functional; parameters: scale not given: the % may be the effect or the level left; settings: time 25 day
[20] = test system: A549; assay: Antitumor activity against human A549 cells xenografted in CD1 mouse assessed as reduction in tumour volume at 6 mg/kg, sc treated 3 times a week for 25 days in presence of thymoquinone relative to control; format: functional; parameters: scale not given: the % may be the effect or the level left; settings: time 25 day
[21] = test system: LXFL 529; assay: Cytotoxicity against human LXFL 529 cells assessed as cell growth inhibition measured after 3 days by SRB assay; format: functional, cell-based; settings: LXFL 529, 72 h
[22] = Antiproliferative activity against human NOZ cells assessed as cell growth inhibition measured upto 72 hrs by CCK-8 assay; format: functional, cell-based
[23] = test system: MV4-11; assay: Antiproliferative activity against human MV4-11 cells assessed as cell growth inhibition measured after 72 hrs by tetrazolium staining based WST-8 assay; format: functional; settings: MV4-11, 72 h
[24] = target: Serine/threonine-protein kinase Sgk1 (Homo sapiens, UniProt O00141); assay: Inhibition of SGK (unknown origin) in presence of ATP
[25] = target: T1, Receptor-type tyrosine-protein kinase FLT3; assay: Inhibition of recombinant FLT3 (unknown origin) in presence of ATP by HTRF assay
[26] = Inhibition of VEGFR (unknown origin); parameters: species or system Homo sapiens
[27] = test system: HL-60; assay: Antiproliferative activity against human HL-60 cells assessed as cell growth inhibition measured after 3 days by trypan blue staining based inverted microscope method; format: functional; settings: HL-60, 72 h, time 3 day
[28] = target: T2, CDK2/Cyclin A2; assay: Inhibition of CDK2/cyclin A (unknown origin); format: protein-complex assay
[29] = Inhibition of CDK2/cyclin E (unknown origin); parameters: species or system Homo sapiens
[30] = test system: HUVEC; assay: Antiproliferative activity against HUVEC cells assessed as cell growth inhibition measured after 3 days by [3H]-thymidine incorporation assay; format: functional, cell-based; settings: Homo sapiens
[31] = target: Fibroblast growth factor receptor 1 (Homo sapiens, UniProt P11362); assay: Inhibition of FGFR1 (unknown origin)
[32] = species: Danio rerio; assay: Antiangiogenic activity in transgenic zebrafish embryo assessed as inhibition of angiogenic vessel growth incubated for 24 hrs by FITC staining based analysis; format: functional, organism-based
[33] = test system: MCF7; assay: Cytotoxicity against human MCF7 cells assessed as cell growth inhibition measured after 3 days by SRB assay; format: functional, cell-based; settings: MCF7, 72 h
[34] = test system: HuCCT-1; assay: Antiproliferative activity against human HuCCT-1 cells assessed as cell growth inhibition measured upto 72 hrs by CCK-8 assay; format: functional, cell-based; settings: HuCCT-1, 72 h
[35] = Antiproliferative activity against human OZ [Human cholangiocarcinoma] cells assessed as cell growth inhibition measured upto 72 hrs by CCK-8 assay; format: functional, cell-based
[36] = target: Receptor-type tyrosine-protein kinase FLT3 (Homo sapiens, UniProt P36888, D835Y); assay: Inhibition of recombinant FLT3 D835Y mutant (unknown origin) in presence of ATP by HTRF assay
[37] = test system: K-562R; assay: Antiproliferative activity against imatinib-resistant human K-562R cells assessed as cell growth inhibition measured after 72 hrs by MTT assay; format: functional, cell-based
[38] = test system: K562; assay: Antitumor activity against human K562 cells xenografted in BALB/c mouse assessed as reduction in tumour volume at 6 mg/kg, ip treated every other day for 2 weeks relative to control; format: functional; parameters: scale not given: the % may be the effect or the level left
[39] = target: Aurora kinase A (Homo sapiens, UniProt O14965); assay: Inhibition of Aurora A (unknown origin)
[40] = target: Aurora kinase B (Homo sapiens, UniProt Q96GD4); assay: Inhibition of Aurora B (unknown origin)
[41] = target: Aurora kinase C (Homo sapiens, UniProt Q9UQB9); assay: Inhibition of Aurora C (unknown origin)
Chain of Aurora kinase C (Q9UQB9 whole entry): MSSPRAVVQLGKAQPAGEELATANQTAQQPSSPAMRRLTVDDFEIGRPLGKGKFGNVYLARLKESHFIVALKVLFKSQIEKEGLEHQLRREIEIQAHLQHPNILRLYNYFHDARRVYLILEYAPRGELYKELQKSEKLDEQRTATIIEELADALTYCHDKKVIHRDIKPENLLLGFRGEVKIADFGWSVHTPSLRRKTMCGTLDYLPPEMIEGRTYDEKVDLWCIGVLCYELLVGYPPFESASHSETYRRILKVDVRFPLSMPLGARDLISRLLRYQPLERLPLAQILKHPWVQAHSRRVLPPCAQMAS

Chain of Tyrosine-protein kinase Lck (P06239 whole entry, the tested form may be a part): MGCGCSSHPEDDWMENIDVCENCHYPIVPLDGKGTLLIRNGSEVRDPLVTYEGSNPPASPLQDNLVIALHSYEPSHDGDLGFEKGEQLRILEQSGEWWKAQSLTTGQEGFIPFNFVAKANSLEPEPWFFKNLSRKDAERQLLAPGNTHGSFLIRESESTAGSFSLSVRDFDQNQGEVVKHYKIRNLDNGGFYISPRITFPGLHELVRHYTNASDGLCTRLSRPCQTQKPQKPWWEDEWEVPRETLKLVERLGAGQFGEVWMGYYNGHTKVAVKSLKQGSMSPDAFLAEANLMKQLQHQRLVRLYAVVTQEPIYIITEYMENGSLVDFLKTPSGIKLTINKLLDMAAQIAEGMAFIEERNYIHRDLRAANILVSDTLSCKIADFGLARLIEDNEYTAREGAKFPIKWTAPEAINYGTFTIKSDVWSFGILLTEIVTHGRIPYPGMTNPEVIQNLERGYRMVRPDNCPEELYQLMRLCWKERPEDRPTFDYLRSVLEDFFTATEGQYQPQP
Chain of Aurora kinase A (O14965 whole entry): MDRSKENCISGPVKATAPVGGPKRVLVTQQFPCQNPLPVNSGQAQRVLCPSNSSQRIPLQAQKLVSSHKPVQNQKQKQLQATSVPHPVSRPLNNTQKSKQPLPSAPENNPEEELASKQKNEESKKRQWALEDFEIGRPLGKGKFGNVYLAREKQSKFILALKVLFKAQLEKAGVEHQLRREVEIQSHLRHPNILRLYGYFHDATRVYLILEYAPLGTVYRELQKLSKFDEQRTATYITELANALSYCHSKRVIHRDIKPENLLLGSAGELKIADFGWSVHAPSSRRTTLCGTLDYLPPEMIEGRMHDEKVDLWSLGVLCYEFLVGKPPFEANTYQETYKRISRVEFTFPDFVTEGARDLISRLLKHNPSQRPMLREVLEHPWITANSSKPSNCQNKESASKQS
Chain of Serine/threonine-protein kinase Sgk1 (O00141 whole entry): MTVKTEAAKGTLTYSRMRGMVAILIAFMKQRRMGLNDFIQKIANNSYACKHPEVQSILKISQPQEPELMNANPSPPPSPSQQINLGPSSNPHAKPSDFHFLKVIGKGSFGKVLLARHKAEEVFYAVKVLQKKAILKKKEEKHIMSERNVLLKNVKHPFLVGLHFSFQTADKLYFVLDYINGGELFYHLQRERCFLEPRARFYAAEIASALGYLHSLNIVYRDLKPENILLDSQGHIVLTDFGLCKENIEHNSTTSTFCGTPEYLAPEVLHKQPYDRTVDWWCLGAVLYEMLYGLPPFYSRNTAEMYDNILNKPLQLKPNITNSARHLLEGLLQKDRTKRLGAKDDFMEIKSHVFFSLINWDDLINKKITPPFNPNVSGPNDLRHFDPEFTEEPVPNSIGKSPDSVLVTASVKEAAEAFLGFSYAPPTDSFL
Chain of Proto-oncogene tyrosine-protein kinase Src (P12931 2-536 limits assumed): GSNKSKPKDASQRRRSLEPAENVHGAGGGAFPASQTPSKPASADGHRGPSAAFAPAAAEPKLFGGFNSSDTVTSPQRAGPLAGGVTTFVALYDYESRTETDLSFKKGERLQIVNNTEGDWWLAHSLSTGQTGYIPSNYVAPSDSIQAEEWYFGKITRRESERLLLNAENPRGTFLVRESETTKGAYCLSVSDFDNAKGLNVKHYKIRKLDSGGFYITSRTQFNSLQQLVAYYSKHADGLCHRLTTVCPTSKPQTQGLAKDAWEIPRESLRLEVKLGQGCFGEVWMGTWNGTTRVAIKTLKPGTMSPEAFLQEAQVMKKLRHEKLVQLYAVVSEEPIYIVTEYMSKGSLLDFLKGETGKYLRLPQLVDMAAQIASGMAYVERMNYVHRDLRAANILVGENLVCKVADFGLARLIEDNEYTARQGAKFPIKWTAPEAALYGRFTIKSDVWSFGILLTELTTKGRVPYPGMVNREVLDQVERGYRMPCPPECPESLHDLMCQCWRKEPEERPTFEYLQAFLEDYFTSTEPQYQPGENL
Chain of Vascular endothelial growth factor receptor 2 (P35968 whole entry): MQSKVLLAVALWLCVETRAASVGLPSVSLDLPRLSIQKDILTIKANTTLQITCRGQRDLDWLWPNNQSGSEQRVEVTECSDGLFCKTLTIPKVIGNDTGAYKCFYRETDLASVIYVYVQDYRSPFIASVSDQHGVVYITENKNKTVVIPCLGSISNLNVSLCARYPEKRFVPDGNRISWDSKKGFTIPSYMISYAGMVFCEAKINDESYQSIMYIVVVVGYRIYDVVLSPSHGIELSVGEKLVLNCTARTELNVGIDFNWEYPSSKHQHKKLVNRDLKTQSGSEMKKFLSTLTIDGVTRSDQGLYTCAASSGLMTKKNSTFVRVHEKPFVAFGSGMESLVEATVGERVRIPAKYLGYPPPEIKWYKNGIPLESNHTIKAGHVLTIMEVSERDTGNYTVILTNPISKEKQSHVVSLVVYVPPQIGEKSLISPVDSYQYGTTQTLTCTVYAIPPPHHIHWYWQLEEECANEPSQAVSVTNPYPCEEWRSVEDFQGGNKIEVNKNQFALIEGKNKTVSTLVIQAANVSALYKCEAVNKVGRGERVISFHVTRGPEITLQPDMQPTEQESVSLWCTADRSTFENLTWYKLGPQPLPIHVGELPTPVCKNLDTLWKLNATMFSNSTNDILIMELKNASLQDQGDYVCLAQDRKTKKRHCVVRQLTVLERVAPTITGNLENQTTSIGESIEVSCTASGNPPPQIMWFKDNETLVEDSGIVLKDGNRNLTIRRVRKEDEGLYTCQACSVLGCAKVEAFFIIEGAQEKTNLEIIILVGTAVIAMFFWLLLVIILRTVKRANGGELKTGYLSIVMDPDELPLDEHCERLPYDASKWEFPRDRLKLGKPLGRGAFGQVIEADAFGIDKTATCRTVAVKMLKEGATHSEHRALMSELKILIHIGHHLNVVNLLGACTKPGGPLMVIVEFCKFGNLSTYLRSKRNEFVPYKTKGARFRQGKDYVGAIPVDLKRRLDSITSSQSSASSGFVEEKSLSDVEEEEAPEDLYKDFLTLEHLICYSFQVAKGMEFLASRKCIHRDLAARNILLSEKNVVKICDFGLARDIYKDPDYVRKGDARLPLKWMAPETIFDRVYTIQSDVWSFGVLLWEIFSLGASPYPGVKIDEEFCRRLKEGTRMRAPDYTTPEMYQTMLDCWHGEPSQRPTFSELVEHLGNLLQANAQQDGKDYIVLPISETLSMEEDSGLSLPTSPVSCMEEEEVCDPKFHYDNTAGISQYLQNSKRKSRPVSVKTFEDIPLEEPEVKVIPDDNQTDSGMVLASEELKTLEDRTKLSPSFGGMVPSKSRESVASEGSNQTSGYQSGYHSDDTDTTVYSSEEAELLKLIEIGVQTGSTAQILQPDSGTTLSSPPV
Chain of Aurora kinase B (Q96GD4 whole entry): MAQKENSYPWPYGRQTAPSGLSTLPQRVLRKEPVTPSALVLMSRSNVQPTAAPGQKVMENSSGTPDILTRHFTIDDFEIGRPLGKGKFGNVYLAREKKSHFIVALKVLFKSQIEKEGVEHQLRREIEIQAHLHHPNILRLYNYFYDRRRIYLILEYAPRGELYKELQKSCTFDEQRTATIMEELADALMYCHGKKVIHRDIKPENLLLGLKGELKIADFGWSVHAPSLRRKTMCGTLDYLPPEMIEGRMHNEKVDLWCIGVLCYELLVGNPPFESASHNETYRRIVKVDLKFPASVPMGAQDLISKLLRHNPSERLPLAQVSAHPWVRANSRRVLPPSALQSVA
Chain of Fibroblast growth factor receptor 1 (P11362 whole entry): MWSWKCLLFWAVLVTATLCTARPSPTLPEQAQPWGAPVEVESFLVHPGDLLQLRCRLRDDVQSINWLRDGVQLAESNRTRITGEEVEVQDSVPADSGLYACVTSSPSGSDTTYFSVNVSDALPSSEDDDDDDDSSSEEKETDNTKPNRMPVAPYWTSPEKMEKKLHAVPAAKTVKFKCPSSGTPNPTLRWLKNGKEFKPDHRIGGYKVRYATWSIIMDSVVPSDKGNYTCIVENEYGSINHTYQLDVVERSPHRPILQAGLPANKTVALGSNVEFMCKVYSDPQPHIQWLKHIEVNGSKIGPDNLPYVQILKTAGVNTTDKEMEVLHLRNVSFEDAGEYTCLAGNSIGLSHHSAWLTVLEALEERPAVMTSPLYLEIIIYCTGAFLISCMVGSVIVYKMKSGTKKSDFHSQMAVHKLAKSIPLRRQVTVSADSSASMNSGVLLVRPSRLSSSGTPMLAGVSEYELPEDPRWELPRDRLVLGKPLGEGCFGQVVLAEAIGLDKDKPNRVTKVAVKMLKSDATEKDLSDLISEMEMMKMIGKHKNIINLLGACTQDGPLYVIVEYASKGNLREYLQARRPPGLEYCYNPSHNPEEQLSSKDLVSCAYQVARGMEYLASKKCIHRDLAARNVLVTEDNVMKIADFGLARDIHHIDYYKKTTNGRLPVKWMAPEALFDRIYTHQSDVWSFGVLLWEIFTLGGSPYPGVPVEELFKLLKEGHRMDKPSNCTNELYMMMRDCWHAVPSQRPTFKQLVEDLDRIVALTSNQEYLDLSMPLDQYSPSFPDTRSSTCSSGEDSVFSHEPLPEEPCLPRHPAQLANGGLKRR

SMILES: COc1ccc2c(c1)/C(=C1/Nc3ccccc3/C1=N\OCCO[C@@H]1O[C@H](CO)[C@@H](O)[C@H](O)[C@H]1O)C(=O)N2
IC50 [1]: 500 nM
IC50 [2]: 1200 nM
IC50 [3]: 500 nM

SMILES: Cl.Cl.O=C1Nc2cc(Br)ccc2/C1=C1/Nc2ccccc2/C1=N\OCCN1CCNCC1
IC50 [8]: 1.3 nM

SMILES: O=C1Nc2ccc(C(=O)O)cc2/C1=C1/Nc2ccccc2/C1=N\O
IC50 [13]: 7.89 nM
GI50 [14]: > 1000 nM
IC50 [15]: 7.89 nM

SMILES: O=C1Nc2ccccc2/C1=C1/Nc2ccccc2/C1=N\O
IC50 [16]: 3.33 µM
IC50 [17]: 300 nM
IC50 [13]: 101 nM
IC50 [18]: 590 nM
Activity [19]: 66.7%
Activity [20]: 83.5%
IC50 [21]: 3000 nM
IC50 [22]: 4.4 µM
IC50 [23]: 30 nM
IC50 [24]: 380 nM
IC50 [25]: 79 nM
IC50 [26]: 1480 nM
GI50 [27]: 36.6 µM
IC50 [28]: 440 nM
IC50 [29]: 250 nM
IC50 [30]: 360 nM
IC50 [31]: 2500 nM
IC50 [32]: 310 nM
IC50 [33]: 3.3 µM
IC50 [34]: 5 µM
IC50 [35]: 4.7 µM
IC50 [36]: 101 nM

SMILES: O=C1Nc2ccc([N+](=O)[O-])cc2/C1=C1/Nc2ccc(O)cc2/C1=N\O
IC50 [37]: 783 nM
Activity [38]: 90%

Second part, led by results:

IC50 [4]: 950 nM
IC50 [1]: < 100 nM
IC50 [6]: 950 nM
SMILES: O=C1Nc2ccccc2/C1=C1/Nc2ccccc2/C1=N\OCC(O)CO (centres undefined)
Activity [5]: 49.3%
IC50 [3]: 900 nM
Activity [7]: 46.8%

IC50 [9]: 2420 nM
IC50 [10]: 2910 nM
IC50 [11]: 3.65 µM
IC50 [12]: 2360 nM
SMILES: O=C1Nc2ccc(NC(=O)C(c3ccccc3)c3ccccc3)cc2/C1=C1/Nc2ccccc2/C1=N\O

IC50 [39]: 20 µM
IC50 [40]: 8 µM
IC50 [41]: 100 nM
SMILES: CC(=O)O/N=C1/C(=C2/C(=O)Nc3c(Br)cccc32)Nc2ccccc21
